In general, MIC refers to the smallest concentration in the dilution series that meets the test's criterion for growth inhibition. Lower therefore signals greater potency.

The subject of one experiment is S. aureus ATCC 13709. The experiment in a line: MIC, S. aureus ATCC 13709 (Alamar Blue broth microdilution). Format: cell-based. The conditions noted are these: Staphylococcus aureus, ATCC13709, S. aureus; Alamar Blue read after overnight incubation at 35° C. In general terms: The colour change of resazurin is a common sign of viable cells or microbes.
Another experiment relates to E. coli ATCC 25922. Briefly: MIC, E. coli ATCC 25922. Type of experiment: cell-based. The conditions noted are these: Escherichia coli, ATCC25922, E. coli; Alamar Blue read after overnight incubation at 35° C.

SMILES strings stand for the structures. In brackets after ≈: the same amount, converted by molar mass. A value given as a limit tells only on which side of the number the result lay.

With `CNc1cccc2c1[nH]c1nc(Oc3cnc(C)nc3)nc(N3CC[C@@H](NCCC#N)C3)c12` [3.10], the minimal inhibitory concentration (MIC) is 32 µg/mL (≈ 72.2 µM) against S. aureus ATCC 13709 and more than 64 µg/mL in the experiment with E. coli ATCC 25922.

As to `CNc1cccc2c1[nH]c1nc(Oc3cnc(C)nc3)nc(N3CC4C(C3)C4NCCC#N)c12` (stereo not shown) [3.11], the minimum inhibitory concentration (MIC) against S. aureus ATCC 13709 is not above 0.5 µg/mL; against E. coli ATCC 25922, 2 µg/mL (≈ 4.39 µM).

As to `CNc1cccc2c1[nH]c1nc(Oc3cncnc3)nc(N3C[C@H](NCC4CC4)C4(CC4)C3)c12` [3.12], the MIC against S. aureus ATCC 13709 is 1 µg/mL (≈ 2.19 µM); with E. coli ATCC 25922 it was 8 µg/mL (≈ 17.5 µM).

Regarding `CNc1cccc2c1[nH]c1nc(Oc3cncnc3)nc(N3CC4C(C3)C4NCC3CC3)c12` (stereo not shown) [3.13], the MIC against S. aureus ATCC 13709 is not above 0.5 µg/mL; in the experiment on E. coli ATCC 25922 it was 1 µg/mL (≈ 2.26 µM).

For the compound `CNc1cccc2c1[nH]c1nc(Oc3cnc(C)nc3)nc(N3CC4C(C3)C4NCC3CC3)c12` (stereo not shown) [3.14], the minimal inhibitory concentration (MIC) was not above 0.5 µg/mL against S. aureus ATCC 13709 and 2 µg/mL (≈ 4.38 µM) in the experiment on E. coli ATCC 25922.

Take `CNc1cccc2c1[nH]c1nc(Oc3cncnc3)nc(N3CC4CCC(N)C4C3)c12` (stereo not shown) [3.15]: the MIC is 1 µg/mL (≈ 2.4 µM) against S. aureus ATCC 13709 and 8 µg/mL (≈ 19.2 µM) against E. coli ATCC 25922.

Take `CNc1cccc2c1[nH]c1nc(Oc3cncnc3)nc(N3CCC[C@@H](N)C3)c12` [3.16]: the MIC in the experiment on S. aureus ATCC 13709 and with E. coli ATCC 25922 was 4 µg/mL (≈ 10.2 µM) each time.

As for `CNc1cccc2c1[nH]c1nc(Oc3cncnc3)nc(N3CCC(C(N)=O)C3)c12` (stereo not shown) [3.17], the minimal inhibitory concentration (MIC) with S. aureus ATCC 13709 was 2 µg/mL (≈ 4.95 µM); against E. coli ATCC 25922, more than 16 µg/mL.

Take `CNc1cccc2c1[nH]c1nc(Oc3cnc(C)nc3)nc(N3CC4C(C3)C4NC(=O)CN)c12` (stereo not shown) [3.18]: the results for the minimum inhibitory concentration (MIC) in the experiment on S. aureus ATCC 13709 and in the experiment with E. coli ATCC 25922 were 4 µg/mL (≈ 8.7 µM) and more than 16 µg/mL, respectively.

On to `CNc1cccc2c1[nH]c1nc(Oc3cncc(C(N)=O)c3)nc(N3CC4C(N)C4C3)c12` (stereo not shown) [3.19], for which the figures for the minimal inhibitory concentration (MIC) in the experiment with S. aureus ATCC 13709 and in the experiment on E. coli ATCC 25922 were 8 µg/mL (≈ 18.6 µM) and 32 µg/mL (≈ 74.3 µM), respectively.

On to `CNc1cccc2c1[nH]c1nc(Oc3cncc(C(=O)O)c3)nc(N3CC4C(N)C4C3)c12` (stereo not shown) [3.20], for which the MIC against S. aureus ATCC 13709 and against E. coli ATCC 25922 was more than 8 µg/mL in each case.

For the compound `CNc1cccc2c1[nH]c1nc(Oc3ccc(C(=O)OC)nc3)nc(N3CC4C(N)C4C3)c12` (stereo not shown) [3.21], the MIC in the experiment on S. aureus ATCC 13709 is not above 0.5 µg/mL; against E. coli ATCC 25922, 1 µg/mL (≈ 2.24 µM).

For the compound `CNc1cccc2c1[nH]c1nc(Oc3ccc(C(=O)O)nc3)nc(N3CC4C(N)C4C3)c12` (stereo not shown) [3.22], the MIC was 16 µg/mL (≈ 37.1 µM) with S. aureus ATCC 13709 and 64 µg/mL (≈ 148 µM) in the experiment on E. coli ATCC 25922.

As for `CNc1cccc2c1[nH]c1nc(Oc3cnc4ccoc4c3)nc(N3CC4C(N)C4C3)c12` (stereo not shown) [3.23], the MIC in the experiment on S. aureus ATCC 13709 was not above 0.5 µg/mL; in the experiment with E. coli ATCC 25922 it was 2 µg/mL (≈ 4.68 µM).

For `CNc1cccc2c1[nH]c1nc(Oc3cncc(-c4nnn(C)n4)c3)nc(N3CC4C(N)C4C3)c12` (stereo not shown) [3.24], the values for the minimum inhibitory concentration (MIC) in the experiment on S. aureus ATCC 13709 and against E. coli ATCC 25922 were 2 µg/mL (≈ 4.26 µM) and 8 µg/mL (≈ 17 µM), respectively.

`CNc1cccc2c1[nH]c1nc(Oc3cnc(N4CCOCC4)nc3)nc(N3CC4C(N)C4C3)c12` (stereo not shown) [3.26]: the MIC with S. aureus ATCC 13709 and in the experiment on E. coli ATCC 25922 was more than 16 µg/mL in each case.

As to `CNc1cccc2c1[nH]c1nc(Oc3cncc(C#N)c3)nc(N3CC4C(N)C4C3)c12` (stereo not shown) [3.27], the MIC in the experiment on S. aureus ATCC 13709 was 1 µg/mL (≈ 2.42 µM); in the experiment with E. coli ATCC 25922, 4 µg/mL (≈ 9.7 µM).

As to `CNc1cccc2c1[nH]c1nc(Oc3cncnc3)nc(N3CC4C(N)C4C3)c12` (stereo not shown) [3.28], the minimal inhibitory concentration (MIC) was determined as 1 µg/mL (≈ 2.57 µM) in the experiment with S. aureus ATCC 13709 and 2 µg/mL (≈ 5.15 µM) against E. coli ATCC 25922.

As for `CNc1cccc2c1[nH]c1nc(Oc3cnc(C)nc3)nc(N3CC4C(N)C4C3)c12` (stereo not shown) [3.29], the MIC in the experiment on S. aureus ATCC 13709 and in the experiment with E. coli ATCC 25922 was not above 0.5 µg/mL throughout.

Consider `CNc1cccc2c1[nH]c1nc(Oc3ccc[n+]([O-])c3)nc(N3CC4C(N)C4C3)c12` (stereo not shown) [3.30], for which the MIC against S. aureus ATCC 13709 and against E. coli ATCC 25922 was 16 µg/mL (≈ 39.7 µM) each time.

Consider `CNc1cccc2c1[nH]c1nc(Oc3ccc4nccnc4c3)nc(N3CC4C(N)C4C3)c12` (stereo not shown) [3.31], for which the MIC in the experiment on S. aureus ATCC 13709 turned out to be 2 µg/mL (≈ 4.56 µM); with E. coli ATCC 25922, 8 µg/mL (≈ 18.2 µM).

Regarding `CNc1cccc2c1[nH]c1nc(Oc3cnc(N)nc3)nc(N3CC4C(N)C4C3)c12` (stereo not shown) [3.32], the results for the MIC against S. aureus ATCC 13709 and against E. coli ATCC 25922 were not above 0.5 µg/mL and 2 µg/mL (≈ 4.96 µM), respectively.

As for `CNc1cccc2c1[nH]c1nc(Oc3cncc(F)c3)nc(N3CC4C(N)C4C3)c12` (stereo not shown) [3.33], the results for the minimal inhibitory concentration (MIC) with S. aureus ATCC 13709 and with E. coli ATCC 25922 were not above 0.5 µg/mL and 1 µg/mL (≈ 2.47 µM), respectively.

Turning to `CNc1cccc2c1[nH]c1nc(Oc3cnc4cccnc4c3)nc(N3CC4C(N)C4C3)c12` (stereo not shown) [3.34], the MIC in the experiment on S. aureus ATCC 13709 and in the experiment on E. coli ATCC 25922 was not above 0.5 µg/mL each time.

Turning to `CNc1cccc2c1[nH]c1nc(Oc3cncc(OC)c3)nc(N3CC4C(N)C4C3)c12` (stereo not shown) [3.35], the figures for the MIC with S. aureus ATCC 13709 and with E. coli ATCC 25922 were not above 0.5 µg/mL and 1 µg/mL (≈ 2.4 µM), respectively.

With `CNc1cccc2c1[nH]c1nc(Oc3cnc4c(c3)ncn4C)nc(N3CC4C(N)C4C3)c12` (stereo not shown) [3.36], the MIC with S. aureus ATCC 13709 is not above 0.5 µg/mL; in the experiment with E. coli ATCC 25922, 2 µg/mL (≈ 4.53 µM).

With `CNc1cccc2c1[nH]c1nc(Oc3cncnc3)nc(Oc3cncnc3)c12` [3.37], the MIC was 2 µg/mL (≈ 5.18 µM) against S. aureus ATCC 13709 and more than 64 µg/mL in the experiment with E. coli ATCC 25922.

In the case of `CNc1cccc2c1[nH]c1nc(Oc3cnc(C)nc3)nc(Oc3cnc(C)nc3)c12` [3.38], the minimal inhibitory concentration (MIC) in the experiment with S. aureus ATCC 13709 is 1 µg/mL (≈ 2.41 µM); in the experiment with E. coli ATCC 25922 it was more than 32 µg/mL.

Turning to `CNc1cccc2c1[nH]c1nc(Oc3ccc[n+]([O-])c3)nc(Oc3cnc(C)nc3)c12` [3.39], the MIC against S. aureus ATCC 13709 was 2 µg/mL (≈ 4.81 µM); with E. coli ATCC 25922, 64 µg/mL (≈ 154 µM).

For the origin of these results see patent US10858360B2, “Tricyclic gyrase inhibitors” (priority 2011, dated 2020).
